We go through two compounds from patent US10813929B2, “Treating cancer with ATR inhibitors” (VERTEX PHARMACEUTICALS INCORPORATED, priority 2011, dated 2020).

Common to all, as to assay type: cell-based
The test system of test [1] is pancreatic cancer cell lines. Description: Pancreatic cancer cell screen, CellTiter-Glo cell viability assay. The protocol:
All cell lines were seeded in 30 μl of tissue culture medium containing 10% FBS into 384-well opaque-bottom plates. The seeding density was based on the logarithmic growth rate of each cell line. After 24 hours, compound stock solutions were added to each well to afford a matrix consisting of 9 concentrations for VE-822 and 7 concentrations for Gemcitabine and Cisplatin. Each well contains either, agent alone or a combination of both agents. The final concentration ranges were as follows: VE-822, 0.3 nM-2 μM; Gemcitabine, 0.3 nM-0.22 μM; Cisplatin, 30 nM-20 μM. The cells were then incubated for 96 hours at 37° C. in an atmosphere of 5% CO2 and 95% humidity.
(§1) This assay measures the number of viable cells in a culture based on the quantitation of ATP, which is present in metabolically active cells.
(§2) CellTiter-Glo Reagent (Promega, Madison, Wis., USA) was prepared according to the manufacturer's instructions and added 96 hours after compound addition (25 μl/well) to measure cell viability. Luminescence signal was measured with the PHERAStarFS (BMG Labtech, Cary, N.C., USA) automated plate reader. […]
Raw luminescence CellTiter-Glo (CTG) values were normalized to the mean CTG value for the negative control DMSO-treated samples on each assay plate. IC50 values for chemotoxic alone were calculated using DMSO-normalized cell survival values for the samples treated with chemotoxic compound alone. […]
Background: Cellular ATP, detected with luciferase, serves as a proxy for viable cell number.

Test [2] concerns panel of 35 human lung cancer cell lines. The experiment in a line: Lung cancer cell screen, CellTiter-Glo cell viability assay. As to conditions: 96 hours. The protocol: All cell lines were seeded in 30 μl of tissue culture medium containing 10% FBS into 384-well opaque-bottom assay plates. The seeding density was based on the logarithmic growth rate of each cell line. After 24 hours, compound stock solutions were added to each well to afford a matrix consisting of 5 concentrations for VE-822 and 6 concentrations for chemotoxics. Each well contains either, agent alone or a combination of both agents. The final concentration range for VE-822 was 25 nM-2 μM. The concentration ranges for the chemotoxics were as follows: Etoposide, 10 nM-10 μM; Gemcitabine, 0.16 nM-160 nM; Cisplatin, 20 nM-20 μM; Oxaliplatin, 40 nM-40 μM; Irinotecan (SN-38), 0.12 nM-120 nM. The cells were then incubated for 96 hours at 37° C. in an atmosphere of 5% CO2 and 95% humidity.
as §1, §2
Raw luminescence CellTiter-Glo (CTG) values were normalized to the mean CTG value for the negative control DMSO-treated samples on each assay plate. […]

Test [3] concerns phosphorylation of Chk1 (Ser 345). Description: Western blot analysis of Chk1 inhibition. As to conditions: 1 μM VE-821; after gemcitabine (100 nM), radiation (6 Gy) or both; FIG. 1 panel A. The procedure:
Cells were treated with 100 nM gemcitabine for 1 h, 1 μM VE-821 was added 1 h later and cells were irradiated (6 Gy) 1 h after that. Drugs were left for the duration of the experiment and cells were lysed at 2 h post-irradiation and subjected to Western blot analysis. MiaPaCa-2 and PSN-1 cells were exposed to gemcitabine and/or 1 μM VE-821 drug 1 h prior to irradiation with a single dose of 6 Gy. Cells were lysed in RIPA buffer 2 h post-irradiation and subjected to SDS-PAGE electrophoresis and immunoblotting. Chemoluminescence (SuperSignal, Millipore) and film exposure was used to detect antibody binding. Exposed film was digitized and figures were assembled using Microsoft PowerPoint.
A general note: In western blotting, separated proteins are transferred to a membrane and probed.

The subject of test [4] is PSN-1, Panc-1, MiaPaCa-2 pancreatic cancer cell lines. Description: Cell viability assay (Alamar Blue) with irradiation, tumour cells. The conditions noted are these: VE-821 for 96 h with or without 4 Gy; viability after 8 days; FIG. 1 panel B. The protocol: (§3) PSN-1, Panc-1, MiaPaCa-2 pancreatic cancer cell lines and MRCS fibroblasts were treated with increasing concentrations of VE-821 for 96 h combined with or without 4 Gy radiation at 1 h after VE-821 addition. Cell viability was measured after 8 days and shown as normalized to DMSO-treated cells. MiaPaCa-2, PSN-1, Panc1 and MRCS cells (5×104) were plated in 96-well plates and after 4 h treated with increasing concentrations of VE-821 at 1 h before irradiation with a single dose of 6 Gy. Medium was replaced 96 h post-irradiation at which point viability was measured using the using the Alamar Blue assay (Resazurin substrate, SIGMA). Cells were allowed to proliferate and cell viability was again analyzed at day 8 for the different treatment conditions. Cell viability and surviving fraction were normalized to the untreated (control) group.
On the technique in general: Resazurin is reduced to fluorescent resorufin, in cell work by metabolically active cells.

Another test concerns MRCS fibroblasts. The experiment in a line: Cell viability assay (Alamar Blue) with irradiation, normal cells. The conditions noted are these: VE-821 for 96 h with or without 4 Gy; viability after 8 days; FIG. 1 panel B. The procedure:
as §3

In the case of `CNCc1ccc(-c2cc(-c3nc(-c4ccc(S(=O)(=O)C(C)C)cc4)cnc3N)on2)cc1` [VE-822], the “synergy with cisplatin and gemcitabine in pancreatic cancer cell lines” value in test [1] (maximum shift in IC50 of each chemotoxic, 96 hours, FIG. 18) was “Synergizes with Cisplatin and Gemcitabine”. In addition, in test [1] (with chemotoxics, FIG. 19), the “synergy (shift in IC50 of chemotoxic) in pancreatic cancer cell lines” value was “Greater than 3 fold”. Besides, in test [2] (maximum shift in IC50 of each chemotoxic, FIG. 16), the “synergy with chemotoxics across lung cancer cell lines” value is listed as “Synergizes with Chemotoxics”. The “synergy (shift in IC50 of chemotoxic) in lung cancer cell lines” value in test [2] (with cisplatin, etoposide, gemcitabine, oxaplatin and irinotecan, FIG. 17) is reported as “greater than 3 fold”.

On to `CS(=O)(=O)c1ccc(-c2cnc(N)c(C(=O)Nc3ccccc3)n2)cc1` [VE-821], for which the “phosphorylation of Chk1 (Ser 345)” value in test [3] is on record as “inhibits phosphorylation of Chk1 (Ser 345)”. Moreover, in test [4], the “radiosensitisation of pancreatic tumour cells (cell viability)” value was “radiosensitises pancreatic tumour cells”. In addition, the “radiosensitisation of normal cells (cell viability)” value in the test on MRCS fibroblasts is recorded as “not normal cells”.
